# Publication PMC5799297, “Metabolic Hydrolysis of Aromatic Amides in Selected Rat, Minipig, and Human In Vitro Systems” (Scientific Reports, 2018)
# Like-named read-outs stand apart in the source and are kept apart here.
# Experiments:
# [1] = From the text: (§1) Pooled subcellular fractions of male Sprague-Dawley rat liver S9 fractions (10 donors), male Sprague-Dawley Aroclor 1254 induced rat liver S9 fractions (20 donors), human liver S9 fractions (mixed gender 10 donors), male Gottingen minipig liver microsomes (3 donors) and male Gottingen minipig liver S9 fractions (3 donors) were purchased from BioreclamationIVT (West Sussex, UK). Cryopreserved primary human hepatocytes (mixed gender 10 donors) were also purchased from BioreclamationIVT. Human CES1b, CES1c and CES2 Supersomes and human liver microsomes (mixed gender 150 donors) were purchased from Corning (Flintshire, UK). […]
# (§2) LC-MS/MS analysis was performed using a Waters UPLC instrument with an Acquity^TM binary solvent manager, Acquity^TM 4-position heated column manager and 2777 Ultra High Pressure Autosampler coupled to a Xevo-TQ MS triple quadrupole mass spectrometer (Waters Ltd, Herts, UK) with an electrospray ionisation (ESI) source. […] Incubations where the total parent amide decreased below 80% of the t0 baseline sample or the amine metabolite was detected were determined to be hydrolysed.
# [2] = human, in vivo; cited from earlier work
# [3] = cited from earlier work
# AADAC = conditions: cited from earlier work
# [4] = Amide hydrolysis by minipig liver microsomes; conditions: 1 mg/ml protein, 0.5 µM amide, pH 7.4, up to 120 min, no NADPH
# From the text: as §1, §2
structure (smiles),measurement,setting,value
O=C(CCl)Nc1ccccc1 [2-chloro-N-phenylacetamide],change in rate of hydrolysis as a result of Aroclor 1254 induction,[1],enhanced rate of hydrolysis
Nc1ccc([N+](=O)[O-])c(C(F)(F)F)c1 [3-trifluoromethyl-4-nitroaniline],hepatotoxicity,[2],associated with hepatotoxicity
"CC(=O)Nc1ccccc1 [acetanilide, Acetanilide]",amide hydrolysis in humans in vivo,[3],has been observed
same,dose hydrolysed in humans in vivo,[3],approximately 10%
"CC(O)(CS(=O)(=O)c1ccc(F)cc1)C(=O)Nc1ccc(C#N)c(C(F)(F)F)c1 (stereo not shown) [bicalutamide, Bicalutamide]",hepatotoxicity,[2],few cases of hepatotoxicity
"CC(C)C(=O)Nc1ccc([N+](=O)[O-])c(C(F)(F)F)c1 [flutamide, Flutamide]",enzyme mainly responsible for hydrolysis,AADAC,AADAC
"CC(=O)Nc1ccc(O)cc1 [paracetamol, Paracetamol]",dose hydrolysed in humans in vivo,[3],1–2%
"CCCNC(C)C(=O)Nc1ccccc1C (stereo not shown) [prilocaine, Prilocaine]",amide hydrolysis in humans in vivo,[3],undergo hydrolysis
"CCC(=O)Nc1ccc(Cl)c(Cl)c1 [propanil, Propanil]",amide hydrolysis,[4],successful hydrolysis
same,amide hydrolysis in humans in vivo,[3]; human,undergo hydrolysis
